Measured values reported in ChEMBL document CHEMBL3992485 (Medchemcomm, 2016).
Activity calls are given as the source filed them. The rule behind the calls is not given here.

Key:
HeLa [1] = assay: Cell cycle arrest in human HeLa cells assessed as accumulation at G2/M phase at 0.5 uM after 36 hrs by propidium iodide staining based flow cytometry (reference value: 8.14%); format: functional
HeLa [2] = assay: Induction of apoptosis in human HeLa cells at 0.5 uM by Annexin-V-FITC/propidium iodide staining based flow cytometry; format: functional, cell-based; settings: TDE = time-dependent effect
A549 = assay: Antiproliferative activity against human A549 cells measured after 24 hrs by MTT assay; format: functional, cell-based; settings: A549, 24 h
MCF7 = assay: Antiproliferative activity against human MCF7 cells measured after 24 hrs by MTT assay; format: functional, cell-based; settings: MCF7, 24 h
HeLa [3] = assay: Cell cycle arrest in human HeLa cells assessed as accumulation at G1 phase at 0.5 uM after 36 hrs by propidium iodide staining based flow cytometry (reference value: 79.19%); format: functional
HeLa [4] = assay: Cell cycle arrest in human HeLa cells assessed as accumulation at S phase at 0.5 uM after 24 hrs by propidium iodide staining based flow cytometry (reference value: 33.78%); format: functional
HeLa [5] = assay: Cell cycle arrest in human HeLa cells assessed as accumulation at G1 phase at 0.5 uM after 24 hrs by propidium iodide staining based flow cytometry (reference value: 79.19%); format: functional
HeLa [6] = assay: Induction of apoptosis in human HeLa cells assessed as early apoptotic cells at 0.5 uM after 36 hrs by Annexin-V-FITC/propidium iodide staining based flow cytometry (reference value: 6.02%); format: functional
HeLa [7] = assay: Cell cycle arrest in human HeLa cells assessed as accumulation at S phase at 0.2 uM after 12 hrs by propidium iodide staining based flow cytometry (reference value: 49.41%); format: functional
HeLa [8] = assay: Cell cycle arrest in human HeLa cells assessed as accumulation at G2/M phase at 0.8 uM after 12 hrs by propidium iodide staining based flow cytometry (reference value: 2.15%); format: functional
HeLa [9] = assay: Induction of apoptosis in human HeLa cells assessed as late apoptotic cells at 0.1 uM after 24 hrs by Annexin-V-FITC/propidium iodide staining based flow cytometry (reference value: 3.1%); format: functional
HeLa [10] = assay: Induction of apoptosis in human HeLa cells assessed as viable cells at 0.4 uM after 24 hrs by Annexin-V-FITC/propidium iodide staining based flow cytometry (reference value: 94.4%); format: functional; settings: read-out: Activity
HeLa [11] = assay: Induction of apoptosis in human HeLa cells assessed as necrotic cells at 0.2 uM after 24 hrs by Annexin-V-FITC/propidium iodide staining based flow cytometry (reference value: 0.084%); format: functional
HeLa [12] = assay: Cell cycle arrest in human HeLa cells assessed as accumulation at G2/M phase at 0.2 uM after 12 hrs by propidium iodide staining based flow cytometry (reference value: 2.15%); format: functional
HeLa [13] = assay: Induction of apoptosis in human HeLa cells assessed as early apoptotic cells at 0.5 uM after 12 hrs by Annexin-V-FITC/propidium iodide staining based flow cytometry (reference value: 6.02%); format: functional
HeLa [14] = assay: Cell cycle arrest in human HeLa cells assessed as accumulation at G2/M phase at 0.5 uM after 12 hrs by propidium iodide staining based flow cytometry (reference value: 8.14%); format: functional
HeLa [15] = assay: Cell cycle arrest in human HeLa cells assessed as accumulation at G2/M phase at 0.1 uM after 24 hrs by propidium iodide staining based flow cytometry (reference value: 2.15%); format: functional
HeLa [16] = assay: Inhibition of microtubule polymerization in human HeLa cells assessed as appearance of short and curled microtubule fragments at 0.4 uM after 24 hrs by DAPI staining based confocal microscopic analysis; format: cell-based
HeLa [17] = assay: Induction of apoptosis in human HeLa cells assessed as viable cells at 0.1 uM after 24 hrs by Annexin-V-FITC/propidium iodide staining based flow cytometry (reference value: 94.4%); format: functional; settings: read-out: Activity
HeLa [18] = assay: Induction of apoptosis in human HeLa cells assessed as necrotic cells at 0.5 uM after 36 hrs by Annexin-V-FITC/propidium iodide staining based flow cytometry (reference value: 0.35%); format: functional
HeLa [19] = assay: Induction of apoptosis in human HeLa cells assessed as necrotic cells at 0.5 uM after 24 hrs by Annexin-V-FITC/propidium iodide staining based flow cytometry (reference value: 0.35%); format: functional
HeLa [20] = assay: Induction of apoptosis in human HeLa cells assessed as viable cells at 0.5 uM after 24 hrs by Annexin-V-FITC/propidium iodide staining based flow cytometry (reference value: 91%); format: functional; settings: read-out: Activity
HeLa [21] = assay: Induction of apoptosis in human HeLa cells assessed as viable cells at 0.8 uM after 24 hrs by Annexin-V-FITC/propidium iodide staining based flow cytometry (reference value: 94.4%); format: functional; settings: read-out: Activity
HeLa [22] = assay: Induction of apoptosis in human HeLa cells assessed as late apoptotic cells at 0.5 uM after 24 hrs by Annexin-V-FITC/propidium iodide staining based flow cytometry (reference value: 2.64%); format: functional
HeLa [23] = assay: Cell cycle arrest in human HeLa cells assessed as accumulation at G1 phase at 0.5 uM after 12 hrs by propidium iodide staining based flow cytometry (reference value: 79.19%); format: functional
HeLa [24] = assay: Induction of apoptosis in human HeLa cells assessed as early apoptotic cells at 0.1 uM after 24 hrs by Annexin-V-FITC/propidium iodide staining based flow cytometry (reference value: 2.41%); format: functional
[25] = Antiproliferative activity against human 293T cells measured after 24 hrs by MTT assay; format: cell-based; settings: 293T (HEK-293T) cells
HeLa [26] = assay: Induction of apoptosis in human HeLa cells assessed as late apoptotic cells at 0.2 uM after 24 hrs by Annexin-V-FITC/propidium iodide staining based flow cytometry (reference value: 3.1%); format: functional
HeLa [27] = assay: Induction of apoptosis in human HeLa cells assessed as early apoptotic cells at 0.2 uM after 24 hrs by Annexin-V-FITC/propidium iodide staining based flow cytometry (reference value: 2.41%); format: functional
HeLa [28] = assay: Induction of apoptosis in human HeLa cells after 24 hrs by Annexin-V-FITC/propidium iodide staining based flow cytometry; format: functional, cell-based
HeLa [29] = assay: Cell cycle arrest in human HeLa cells assessed as accumulation at S phase at 0.8 uM after 12 hrs by propidium iodide staining based flow cytometry (reference value: 49.41%); format: functional
HeLa [30] = assay: Cell cycle arrest in human HeLa cells assessed as accumulation at G2/M phase at 0.4 uM after 12 hrs by propidium iodide staining based flow cytometry (reference value: 2.15%); format: functional
HepG2 = assay: Antiproliferative activity against human HepG2 cells measured after 24 hrs by MTT assay; format: functional, cell-based; settings: HepG2, 24 h
HeLa [31] = assay: Induction of apoptosis in human HeLa cells assessed as necrotic cells at 0.4 uM after 24 hrs by Annexin-V-FITC/propidium iodide staining based flow cytometry (reference value: 0.084%); format: functional
HeLa [32] = assay: Induction of apoptosis in human HeLa cells assessed as viable cells at 0.2 uM after 24 hrs by Annexin-V-FITC/propidium iodide staining based flow cytometry (reference value: 94.4%); format: functional; settings: read-out: Activity
HeLa [33] = assay: Induction of apoptosis in human HeLa cells assessed as early apoptotic cells at 0.4 uM after 24 hrs by Annexin-V-FITC/propidium iodide staining based flow cytometry (reference value: 2.41%); format: functional

CCn1cc(C(=O)N2CCN(S(=O)(=O)c3c(C(C)C)cc(C(C)C)cc3C(C)C)CC2)c2ccccc21
Activity (HeLa [1]): 65.29% | Activity (HeLa [2]): Tde | IC50 (A549): 590 nM | IC50 (MCF7): 350 nM | Activity (HeLa [3]): 1.19% | Activity (HeLa [4]): 55.73% | Activity (HeLa [5]): 5.23% | Activity (HeLa [6]): 25.3% | Activity (HeLa [7]): 61.18% | Activity (HeLa [8]): 83.61% | Activity (HeLa [9]): 5.71% | viability at 0.4 µM (HeLa [10]): 63.6% | Activity (HeLa [11]): 0.098% | Activity (HeLa [12]): 20.46% | Activity (HeLa [13]): 8.12% | Activity (HeLa [14]): 18.43% | Activity (HeLa [15]): 15.09% | inhibition (HeLa [16]): Active | viability at 0.1 µM (HeLa [17]): 85.1% | Activity (HeLa [18]): 0.329% | Activity (HeLa [19]): 0.303% | viability at 0.5 µM (HeLa [20]): 72.7% | viability at 0.8 µM (HeLa [21]): 44% | Activity (HeLa [22]): 6.84% | Activity (HeLa [23]): 42.86% | Activity (HeLa [24]): 9% | CC50 at 24 h [25]: 424000 nM | Activity (HeLa [26]): 7.24% | Activity (HeLa [27]): 21.7% | Activity (HeLa [28]): Dose-dependent effect | Activity (HeLa [29]): 53.83% | Activity (HeLa [30]): 51.71% | IC50 (HepG2): 490 nM | Activity (HeLa [31]): 0.581% | viability at 0.2 µM (HeLa [32]): 71% | Activity (HeLa [33]): 23.1%
